Key:
[1] = target: T1, Alpha-2A adrenergic receptor (Homo sapiens, UniProt P08913); assay type: cell membranes, Sf9, Membrane; conditions: sf9; also: in other assays of this panel Not Active means under 50% inhibition at 10 µM
T1 sequence (P08913 whole entry): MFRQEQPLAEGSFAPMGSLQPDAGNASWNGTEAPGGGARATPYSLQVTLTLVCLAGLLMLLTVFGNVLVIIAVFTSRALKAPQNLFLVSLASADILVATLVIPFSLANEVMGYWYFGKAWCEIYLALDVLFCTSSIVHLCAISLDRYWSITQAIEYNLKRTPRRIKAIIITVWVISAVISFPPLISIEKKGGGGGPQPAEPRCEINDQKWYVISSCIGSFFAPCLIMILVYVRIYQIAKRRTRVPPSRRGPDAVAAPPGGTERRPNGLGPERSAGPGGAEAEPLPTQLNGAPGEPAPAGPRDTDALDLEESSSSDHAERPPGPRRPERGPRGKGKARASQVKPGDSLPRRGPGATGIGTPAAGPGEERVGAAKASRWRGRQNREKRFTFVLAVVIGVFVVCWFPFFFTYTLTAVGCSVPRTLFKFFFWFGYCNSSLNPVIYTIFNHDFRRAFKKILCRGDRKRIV

[2] = target: Aldo-keto reductase family 1 member B1 (Rattus norvegicus, UniProt P07943); assay type: tissue-based, Lens of camera-type eye;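 also: inhibition of aldose reductase enzyme activity, measured with DL-glyceraldehyde as the substrate; in other assays of this panel Not Active means under 50% inhibition at 10 µM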
[3] = DRUGMATRIX: Calcium Channel Type L, Dihydropyridine radioligand binding (ligand: [3H] Nitrendipine); assay type: cell membranes, Rattus norvegicus, Wistar, Cerebral cortex, Membrane; conditions: Not Active = under 50% inhibition at 10 µM
[4] = target: T2, 5-hydroxytryptamine receptor 2C (Homo sapiens, UniProt P28335); assay: DRUGMATRIX: Serotonin (5-Hydroxytryptamine) 5-HT2C radioligand binding (ligand: [3H] Mesulergine); assay type: cell membranes, CHO-K1, Membrane; conditions: cho-k1; Not Active = under 50% inhibition at 10 µM
T2 sequence (P28335 whole entry): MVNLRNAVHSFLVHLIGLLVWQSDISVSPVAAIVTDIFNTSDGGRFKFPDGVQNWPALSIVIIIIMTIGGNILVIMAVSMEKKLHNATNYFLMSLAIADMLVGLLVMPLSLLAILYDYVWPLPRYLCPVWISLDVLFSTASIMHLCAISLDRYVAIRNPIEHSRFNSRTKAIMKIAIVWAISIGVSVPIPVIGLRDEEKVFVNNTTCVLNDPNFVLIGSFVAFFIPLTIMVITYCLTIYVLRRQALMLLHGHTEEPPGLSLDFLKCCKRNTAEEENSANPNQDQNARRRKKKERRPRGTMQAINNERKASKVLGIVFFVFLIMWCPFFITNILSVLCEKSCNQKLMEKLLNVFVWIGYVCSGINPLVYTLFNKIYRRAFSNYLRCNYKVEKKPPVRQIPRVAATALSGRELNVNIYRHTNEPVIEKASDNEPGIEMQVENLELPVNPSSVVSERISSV

[5] = target: 5-hydroxytryptamine receptor 6 (Homo sapiens, UniProt P50406); assay type: cell membranes, HeLa, Membrane; conditions: hela; also: in other assays of this panel Not Active means under 50% inhibition at 10 µM
Sequence of 5-hydroxytryptamine receptor 6 (P50406 whole entry): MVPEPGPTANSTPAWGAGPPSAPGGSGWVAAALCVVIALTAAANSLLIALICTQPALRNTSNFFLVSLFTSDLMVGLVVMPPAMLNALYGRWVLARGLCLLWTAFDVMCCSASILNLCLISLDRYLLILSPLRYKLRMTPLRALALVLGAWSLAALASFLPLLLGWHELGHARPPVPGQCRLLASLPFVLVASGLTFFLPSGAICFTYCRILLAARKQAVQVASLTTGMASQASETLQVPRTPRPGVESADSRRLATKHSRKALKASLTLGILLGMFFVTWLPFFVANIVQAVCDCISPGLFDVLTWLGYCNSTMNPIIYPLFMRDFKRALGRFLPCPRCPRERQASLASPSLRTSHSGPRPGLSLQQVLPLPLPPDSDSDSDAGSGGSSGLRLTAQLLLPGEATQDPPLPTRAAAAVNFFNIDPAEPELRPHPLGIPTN

[6] = target: T3, 3-hydroxy-3-methylglutaryl-coenzyme A reductase (Homo sapiens, UniProt P04035); parameters: species or system Escherichia coli;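 also: enzyme inhibition assay of HMG-CoA reductase using radiolabeled [14C]HMG-CoA as substrate; in other assays of this panel Not Active means under 50% inhibition at 10 µM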
T3 sequence (P04035 whole entry): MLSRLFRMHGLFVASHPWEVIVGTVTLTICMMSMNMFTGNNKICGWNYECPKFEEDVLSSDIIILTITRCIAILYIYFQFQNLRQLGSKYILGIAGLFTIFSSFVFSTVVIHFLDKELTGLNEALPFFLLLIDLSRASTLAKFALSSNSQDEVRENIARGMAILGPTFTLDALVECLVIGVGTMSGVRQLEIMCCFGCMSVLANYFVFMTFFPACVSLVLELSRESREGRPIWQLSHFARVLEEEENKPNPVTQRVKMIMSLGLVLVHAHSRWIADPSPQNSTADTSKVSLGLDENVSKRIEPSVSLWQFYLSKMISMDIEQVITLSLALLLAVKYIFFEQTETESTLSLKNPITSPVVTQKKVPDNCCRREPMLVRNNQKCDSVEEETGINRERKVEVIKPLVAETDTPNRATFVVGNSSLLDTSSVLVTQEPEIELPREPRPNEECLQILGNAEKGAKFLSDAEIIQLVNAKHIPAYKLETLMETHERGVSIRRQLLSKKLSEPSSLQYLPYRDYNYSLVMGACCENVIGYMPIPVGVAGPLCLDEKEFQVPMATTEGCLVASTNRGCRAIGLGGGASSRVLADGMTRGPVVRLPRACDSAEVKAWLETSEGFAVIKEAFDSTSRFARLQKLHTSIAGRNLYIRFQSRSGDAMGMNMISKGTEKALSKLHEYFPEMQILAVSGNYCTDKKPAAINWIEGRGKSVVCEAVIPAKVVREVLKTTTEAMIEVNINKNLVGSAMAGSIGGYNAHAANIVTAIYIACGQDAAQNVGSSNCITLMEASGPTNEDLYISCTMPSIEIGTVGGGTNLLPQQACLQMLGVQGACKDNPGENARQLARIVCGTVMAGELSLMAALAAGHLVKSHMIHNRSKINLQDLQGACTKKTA

Melanocortin receptor 4 = Melanocortin receptor 4 (Homo sapiens, UniProt P32245); assay type: cell membranes, Membrane; conditions: hek293; also: in other assays of this panel Not Active means under 50% inhibition at 10 µM
Sequence of Melanocortin receptor 4 (P32245 whole entry): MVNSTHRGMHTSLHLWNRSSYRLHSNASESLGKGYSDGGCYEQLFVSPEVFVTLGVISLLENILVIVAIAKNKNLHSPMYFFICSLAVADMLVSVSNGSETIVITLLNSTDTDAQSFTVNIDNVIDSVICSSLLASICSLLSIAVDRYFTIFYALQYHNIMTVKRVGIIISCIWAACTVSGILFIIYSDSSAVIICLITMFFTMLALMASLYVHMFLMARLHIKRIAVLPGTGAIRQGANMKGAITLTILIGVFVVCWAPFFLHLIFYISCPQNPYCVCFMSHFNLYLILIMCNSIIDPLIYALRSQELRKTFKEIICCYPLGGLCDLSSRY

[7] = target: T4, Muscarinic acetylcholine receptor M2 (Homo sapiens, UniProt P08172); assay type: cell membranes, CHO-K1, Membrane; also: in other assays of this panel Not Active means under 50% inhibition at 10 µM
T4 sequence (P08172 whole entry): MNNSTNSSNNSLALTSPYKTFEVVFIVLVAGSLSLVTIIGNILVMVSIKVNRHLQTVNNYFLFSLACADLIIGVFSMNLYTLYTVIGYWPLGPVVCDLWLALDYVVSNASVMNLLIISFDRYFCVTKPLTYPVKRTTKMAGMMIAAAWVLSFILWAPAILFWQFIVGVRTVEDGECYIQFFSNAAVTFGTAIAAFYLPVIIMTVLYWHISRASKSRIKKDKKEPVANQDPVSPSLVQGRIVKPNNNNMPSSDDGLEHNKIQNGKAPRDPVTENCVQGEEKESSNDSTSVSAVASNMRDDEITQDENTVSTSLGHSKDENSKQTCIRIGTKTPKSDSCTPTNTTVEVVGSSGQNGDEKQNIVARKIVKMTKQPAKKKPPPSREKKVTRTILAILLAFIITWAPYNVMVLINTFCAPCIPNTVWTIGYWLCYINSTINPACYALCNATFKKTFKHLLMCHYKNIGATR

[8] = target: Tyrosine-protein kinase Fyn (Homo sapiens, UniProt P06241); assay: biochemical; assay type: cell-based, Insect cells; conditions: insect cells
Sequence of Tyrosine-protein kinase Fyn (P06241 whole entry): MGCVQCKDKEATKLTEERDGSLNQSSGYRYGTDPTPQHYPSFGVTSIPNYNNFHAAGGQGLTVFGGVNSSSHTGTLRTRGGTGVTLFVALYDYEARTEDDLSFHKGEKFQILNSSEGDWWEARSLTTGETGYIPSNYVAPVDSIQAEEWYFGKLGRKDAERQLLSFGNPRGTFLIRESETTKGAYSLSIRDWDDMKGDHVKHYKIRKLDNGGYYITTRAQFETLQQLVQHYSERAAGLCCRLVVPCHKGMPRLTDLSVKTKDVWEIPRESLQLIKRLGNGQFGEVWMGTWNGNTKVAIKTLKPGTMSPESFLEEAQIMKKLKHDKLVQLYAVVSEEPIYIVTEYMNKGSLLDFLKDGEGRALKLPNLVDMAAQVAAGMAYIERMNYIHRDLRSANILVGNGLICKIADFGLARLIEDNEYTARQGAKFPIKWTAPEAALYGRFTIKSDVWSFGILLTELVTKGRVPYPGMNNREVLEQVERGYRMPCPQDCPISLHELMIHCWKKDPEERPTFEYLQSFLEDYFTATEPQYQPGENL

Cytochrome P450 2C19 = Cytochrome P450 2C19 (Homo sapiens, UniProt P33261); conditions: bti-tn-5b1-4; also: in other assays of this panel Not Active means under 50% inhibition at 10 µM
Sequence of Cytochrome P450 2C19 (P33261 whole entry): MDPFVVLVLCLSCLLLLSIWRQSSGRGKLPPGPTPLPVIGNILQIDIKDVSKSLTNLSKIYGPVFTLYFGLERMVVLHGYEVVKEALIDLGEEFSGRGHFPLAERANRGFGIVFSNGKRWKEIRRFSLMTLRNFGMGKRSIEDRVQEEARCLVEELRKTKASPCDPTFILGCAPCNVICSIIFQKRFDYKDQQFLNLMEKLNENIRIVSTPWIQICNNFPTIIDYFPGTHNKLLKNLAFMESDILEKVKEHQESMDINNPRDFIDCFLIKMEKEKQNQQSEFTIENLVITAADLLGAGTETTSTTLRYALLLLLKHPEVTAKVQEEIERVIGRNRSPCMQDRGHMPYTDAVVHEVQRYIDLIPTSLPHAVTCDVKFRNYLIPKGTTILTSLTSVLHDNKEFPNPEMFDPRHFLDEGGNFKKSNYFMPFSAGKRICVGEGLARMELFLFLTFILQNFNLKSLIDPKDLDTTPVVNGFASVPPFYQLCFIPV

Cytochrome P450 2E1 = Cytochrome P450 2E1 (Homo sapiens, UniProt P05181); conditions: bti-tn-5b1-4; also: in other assays of this panel Not Active means under 50% inhibition at 10 µM
Sequence of Cytochrome P450 2E1 (P05181 whole entry): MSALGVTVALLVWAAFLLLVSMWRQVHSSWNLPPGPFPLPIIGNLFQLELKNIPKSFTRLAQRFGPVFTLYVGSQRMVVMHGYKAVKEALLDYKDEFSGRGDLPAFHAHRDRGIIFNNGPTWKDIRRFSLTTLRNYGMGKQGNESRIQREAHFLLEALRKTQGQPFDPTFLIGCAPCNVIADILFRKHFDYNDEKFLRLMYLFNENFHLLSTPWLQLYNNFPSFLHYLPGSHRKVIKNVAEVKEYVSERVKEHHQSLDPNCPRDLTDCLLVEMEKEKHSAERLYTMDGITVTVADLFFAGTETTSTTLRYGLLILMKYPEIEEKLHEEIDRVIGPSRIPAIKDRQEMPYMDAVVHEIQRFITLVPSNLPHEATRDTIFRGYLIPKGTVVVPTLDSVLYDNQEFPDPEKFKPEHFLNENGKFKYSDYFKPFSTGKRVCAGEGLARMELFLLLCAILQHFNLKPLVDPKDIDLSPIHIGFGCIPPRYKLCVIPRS

Molecule	IC50 [1]	IC50 [2]	IC50 [3]	Ki [3]	IC50 [4]	IC50 [5]	IC50 [6]	IC50 (Melanocortin receptor 4)	IC50 ([7]; cho-k1)	IC50 [8]	IC50 (Cytochrome P450 2C19)	Ki (Cytochrome P450 2C19)	IC50 (Cytochrome P450 2E1)	Ki (Cytochrome P450 2E1)	also measured
N#C[C@H](O[C@@H]1O[C@H](CO[C@@H]2O[C@H](CO)[C@@H](O)[C@H](O)[C@H]2O)[C@@H](O)[C@H](O)[C@H]1O)c1ccccc1 [AMYGDALIN]	Not Active	Not Active	Not Active	Not Active	Not Active	Not Active	Not Active	Not Active	Not Active	Not Active	Not Active	Not Active	Not Active	Not Active	
CCOC(=O)OC(C)OC1=C(C(=O)Nc2ccccn2)N(C)S(=O)(=O)c2ccccc21 (centres undefined) [AMPIROXICAM]	Not Active	Not Active	Not Active	Not Active	Not Active	Not Active	Not Active	Not Active	Not Active	Not Active	Not Active	Not Active	Not Active	Not Active	
GOLD SODIUM THIOMALATE	Not Active	Not Active	Not Active	Not Active	Not Active	Not Active	Not Active	Not Active	Not Active		Not Active	Not Active	Not Active	Not Active	Ki [1]: Not Active; Ki [2]: Not Active; Ki [4]: Not Active; Ki [5]: Not Active; Ki [6]: Not Active; Ki (Melanocortin receptor 4): Not Active; Ki ([7]; cho-k1): Not Active; IC50 ([8]; read-out: IC50): 811 nM
C[C@]12CCC(=O)C=C1CC[C@@H]1[C@@H]2C(=O)C[C@@]2(C)[C@H]1CC[C@]2(O)C(=O)CO [CORTISONE]	Not Active	Not Active	Not Active	Not Active	Not Active	Not Active	Not Active	Not Active	Not Active	Not Active	Not Active	Not Active	Not Active	Not Active	
CCCC[C@@H](CC)COC(=O)c1ccccc1C(=O)OC[C@@H](CC)CCCC [BIS(2-ETHYLHEXYL)PHTHALATE]	Not Active	Not Active	Not Active	Not Active	Not Active	Not Active	Not Active	Not Active	Not Active	Not Active	Not Active	Not Active	Not Active	Not Active	
CCc1ccc(C(=O)C(C)CN2CCCCC2)cc1 (centres undefined) [EPERISONE]	Not Active	Not Active	Not Active	Not Active	Not Active	Not Active	Not Active	Not Active		Not Active	Not Active	Not Active	Not Active	Not Active	IC50 ([7]; read-out: IC50): 2340 nM; Ki ([7]; read-out: Ki): 831 nM
CC(C)n1c(/C=C/C(O)CC(O)CC(=O)O)c(-c2ccc(F)cc2)c2ccccc21 (centres undefined) [FLUVASTATIN]	Not Active	Not Active	Not Active	Not Active	Not Active	Not Active		Not Active	Not Active	Not Active	Not Active	Not Active	Not Active	Not Active	IC50 ([6]; read-out: IC50): 0.353 nM
CN(C)[C@@H]1C(O)=C(C(N)=O)C(=O)[C@@]2(O)C(O)=C3C(=O)c4c(O)cccc4[C@@](C)(O)[C@H]3[C@H](O)[C@@H]12 [OXYTETRACYCLINE]	Not Active	Not Active	Not Active	Not Active	Not Active	Not Active	Not Active	Not Active	Not Active	Not Active	Not Active	Not Active	Not Active	Not Active	
O=C1CN=C(c2ccccc2)c2cc([N+](=O)[O-])ccc2N1 [NITRAZEPAM]	Not Active	Not Active	Not Active	Not Active	Not Active	Not Active	Not Active	Not Active	Not Active	Not Active	Not Active	Not Active	Not Active	Not Active	

Source: ChEMBL document CHEMBL1909046, “DrugMatrix in vitro pharmacology data”
